The record followed here is the C3SDB collision cross section collection.

Values joined by “and” are separate entries in the source; they are usually repeats but may differ in a detail not shown here. Equal entries are not always repeated.

For the data set the following is noted: instrument: DT, single field, calibrated with ESI Low Concentration Tuning Mix (Agilent).

As to `NC(N)=NCC(=O)O` [GUANIDINOACETATE], the “collision cross section (N2)” value was determined as 124.9 Å² ([M+H]+) and 134.6 Å² ([M+Na]+).
In the case of `NC(N)=N[C@@H](CC(=O)O)C(=O)O` [GUANIDINOSUCCINATE], the “collision cross section (N2)” value ([M+H]+) stood at 136.8 Å², the “collision cross section (N2)” value ([M+Na-2H]-) is given as 147 Å², the “collision cross section (N2)” value ([M+Na]+) is 148 Å² and the “collision cross section (N2)” value ([M-H]-) was determined as 130.2 Å².
On to `Nc1nc(=O)c2ncn([C@@H]3O[C@H](COP(=O)(O)OP(=O)(O)O[C@H]4O[C@H](CO)[C@@H](O)[C@H](O)[C@@H]4O)[C@@H](O)[C@H]3O)c2[nH]1` [GUANOSINE DIPHOSPHATE MANNOSE], for which the “collision cross section (N2)” value was 227.4 Å² ([M+H]+); 205.5 Å² and 217.2 Å² ([M+Na-2H]-); 222.3 Å² ([M+Na]+); 209 Å² ([M-H]-).
Turning to `Nc1nc(=O)c2ncn([C@@H]3O[C@H](COP(=O)(O)OP(=O)(O)O)[C@@H](O)[C@H]3O)c2[nH]1` [GUANOSINE DIPHOSPHATE], the “collision cross section (N2)” value by setting is: ([M+H]+) 192 Å²; ([M+Na-2H]-) 186.4 Å²; ([M+Na]+) 188.4 Å²; ([M-H]-) 182.4 Å².
For the molecule `Nc1nc(=O)c2ncn([C@@H]3O[C@H](COP(=O)(O)OP(=O)(O)OP(=O)(O)O)[C@@H](O)[C@H]3O)c2[nH]1` [GUANOSINE TRIPHOSPHATE], the “collision cross section (N2)” value by setting is: ([M+Na-2H]-) 184.2 Å²; ([M-H]-) 193 Å².
Take `Nc1nc(=O)c2ncn([C@@H]3O[C@H](CO)[C@@H](O)[C@H]3O)c2[nH]1` [GUANOSINE]: the “collision cross section (N2)” value is, setting by setting: ([M+H]+) 163.4 Å²; ([M+K]+) 174.3 Å²; ([M+Na]+) 174.9 Å²; ([M-H]-) 162.1 Å².
For `NCCc1cnc[nH]1` [HISTAMINE], the “collision cross section (N2)” value ([M+H]+) came out at 120.4 Å².
With `N[C@@H](Cc1cnc[nH]1)C(=O)O` [HISTIDINE], the “collision cross section (N2)” value runs as follows: ([M+H]+) 131.7 Å² and 132.1 Å²; ([M+Na]+) 134.6 Å² and 134.8 Å²; ([M-H]-) 128.1 Å² and 128.5 Å².
In the case of `NC(CO)Cc1cnc[nH]1` (centres undefined) [HISTIDINOL], the “collision cross section (N2)” value came to 128.7 Å² ([M+H]+), 131.9 Å² ([M+Na]+) and 127.5 Å² ([M-H]-).
Consider `N[C@@H](CCS)C(=O)O` [HOMOCYSTEINE], for which the “collision cross section (N2)” value ([M+H]+) is recorded as 130.3 Å², the “collision cross section (N2)” value ([M+Na-2H]-) is given as 127.6 Å² and the “collision cross section (N2)” value ([M-H]-) is on record as 143.6 Å².
`NC(CCSSCCC(N)C(=O)O)C(=O)O` (centres undefined) [HOMOCYSTINE]: the “collision cross section (N2)” value reads like this: ([M+H]+) 158 Å²; ([M+Na-2H]-) 154.2 Å²; ([M+Na]+) 158.8 Å²; ([M-H]-) 151.6 Å².
As for `O=c1nc[nH]c2c1ncn2[C@@H]1O[C@H](CO)[C@@H](O)[C@H]1O` [INOSINE], the “collision cross section (N2)” value reads like this: ([M+K]+) 170.2 Å²; ([M+Na]+) 170.8 Å²; ([M-H]-) 158.2 Å².
Take `O=C(O)CC(C(=O)O)C(O)C(=O)O` (centres undefined) [ISOCITRATE]: the “collision cross section (N2)” value is recorded as 136.4 Å² ([M+Na-2H]-), 142.7 Å² ([M+Na]+) and 127 Å² ([M-H]-).
`C=C(CC(=O)O)C(=O)O` [ITACONATE]: the “collision cross section (N2)” value came out at 131.7 Å² ([M+Na]+) and 118.7 Å² ([M-H]-).
On to `N[C@@H](Cc1ccc(O)c(O)c1)C(=O)O` [L-DOPA], for which the “collision cross section (N2)” value ([M+H]+) is given as 149.4 Å², the “collision cross section (N2)” value ([M+Na]+) is reported as 147.5 Å² and the “collision cross section (N2)” value ([M-H]-) worked out at 140.6 Å².
As for `CC(C)C[C@H](N)C(=O)O` [LEUCINE], the “collision cross section (N2)” value by setting is: ([M+H]+) 134.8 Å²; ([M-H]-) 130.6 Å².
For `CCCCC/C=C\C/C=C\CCCCCCCC(=O)O` [LINOLEATE], the “collision cross section (N2)” value ([M+Na]+) is reported as 177 Å².
As to `O=C(O)CC(O)C(=O)O` (centres undefined) [MALATE], the “collision cross section (N2)” value ([M-H]-) amounted to 115.9 Å².
As to `OC[C@H]1O[C@H](O[C@H]2[C@H](O)[C@@H](O)[C@H](O)O[C@@H]2CO)[C@H](O)[C@@H](O)[C@@H]1O` [MALTOSE], the “collision cross section (N2)” value ([M+K]+) is 181.7 Å², the “collision cross section (N2)” value ([M+Na]+) was 178.9 Å² and the “collision cross section (N2)” value ([M-H]-) turned out to be 180.1 Å².
`O=C([O-])C(O)c1ccccc1` (centres undefined) [MANDELATE]: where the note is “[M-H]-”, the “collision cross section (N2)” value worked out at 130.2 Å².
Regarding `OC[C@H]1OC(O)[C@@H](O)[C@@H](O)[C@@H]1O` (some centres undefined) [MANNOSE], under “[M+Na]+”, the “collision cross section (N2)” value is on record as 141.5 Å².
In the case of `C[C@@](O)(CCO)CC(=O)[O-]` [MEVALONATE], the “collision cross section (N2)” value is given as 132.9 Å² ([M+Na]+) and 128.7 Å² ([M-H]-).
For `OC1C(O)C(O)C(O)C(O)C1O` (centres undefined) [MYOINOSITOL], the “collision cross section (N2)” value is, setting by setting: ([M+Na]+) 148.6 Å²; ([M-H]-) 131.3 Å².
As for `CC(=O)N[C@@H](CCC(=O)O)C(=O)O` [N-ACETYLGLUTAMATE], the “collision cross section (N2)” value was 143.3 Å² ([M+Na-2H]-), 142.4 Å² ([M+Na]+) and 136.9 Å² ([M-H]-).
With `CC(=O)N[C@@H](CC(C)C)C(=O)O` [N-ACETYLLEUCINE], the “collision cross section (N2)” value reads like this: ([M+Na]+) 149.9 Å²; ([M-H]-) 140.5 Å².
Turning to `CC(=O)N[C@H]1[C@H]([C@H](O)[C@H](O)CO)OC(O)(C(=O)O)C[C@@H]1O` (some centres undefined) [N-ACETYLNEURAMINATE], the “collision cross section (N2)” value ([M+H]+) was 166.5 Å²; the “collision cross section (N2)” value ([M+Na-2H]-) was 171.4 Å²; the “collision cross section (N2)” value ([M+Na]+) is given as 168.7 Å²; the “collision cross section (N2)” value ([M-H]-) is 158.5 Å² and 163.8 Å².
In the case of `CN[C@@H](CCC(=O)O)C(=O)O` [N-METHYLGLUTAMATE], the “collision cross section (N2)” value amounted to 132.2 Å² ([M+H]+), 137.2 Å² ([M+Na-2H]-) and 129.5 Å² ([M-H]-).
For `CNCCc1c[nH]c2ccccc12` [N-METHYLTRYPTAMINE], the “collision cross section (N2)” value ([M+H]+) was 142.5 Å².
`O=C([O-])c1cccnc1` [NICOTINATE]: the “collision cross section (N2)” value ([M-H]-) was 121 Å².
Take `COc1cc(C(O)CN)ccc1O` (centres undefined) [NORMETANEPHRINE]: where the note is “[M+Na]+”, the “collision cross section (N2)” value is reported as 155 Å².
As for `O=C(O)CCCCCCCCCCCO` [OMEGA-HYDROXYDODECANOATE], the “collision cross section (N2)” value was 160.3 Å² ([M+Na]+) and 152.6 Å² ([M-H]-).
For `O=C(O)CCCC(=O)C(=O)O` [OXOADIPATE], the “collision cross section (N2)” value is recorded as 132.2 Å² ([M+Na-2H]-), 137.9 Å² ([M+Na]+) and 126.5 Å² ([M-H]-).
As to `CCCCCC/C=C\CCCCCCCC(=O)O` [PALMITOLEATE], the “collision cross section (N2)” value ([M-H]-) was found to be 167.3 Å².
For the molecule `CCCCCCCCCCCCCCCC(=O)OC(CC(=O)[O-])C[N+](C)(C)C` (centres undefined) [PALMITOYLCARNITINE], the “collision cross section (N2)” value ([M+H]+) is on record as 213.9 Å² and the “collision cross section (N2)” value ([M+Na]+) is on record as 219.7 Å².
`CN(CC(=O)O)/C(N)=N/P(=O)(O)O` [PHOSPHOCREATINE]: the “collision cross section (N2)” value by setting is: ([M+H]+) 144.6 Å² and 144.8 Å²; ([M+Na-2H]-) 142.7 Å² and 142.8 Å².
In the case of `C=C(OP(=O)(O)O)C(=O)O` [PHOSPHOENOLPYRUVATE], the “collision cross section (N2)” value ([M+Na]+) is 138 Å² and 138.4 Å².
